Laboratory results as given in ChEMBL document CHEMBL4477234, “Potent Suppressive Effects of 1-Piperidinylimidazole Based Novel P2X7 Receptor Antagonists on Cancer Cell Migration and Invasion” (J Med Chem, 2016).
Activity calls are given as the source filed them. No cut-off for these calls is given here.

Assays:
P2X purinoceptor 3 [1] = target: T1, P2X purinoceptor 3 (Rattus norvegicus, UniProt P49654); test: Antagonist activity at P2X3 receptor in Wistar rat DRG neurons assessed as inhibition of alpha/beta-meATP-induced currents preincubated for 5 mins prior to alpha/beta-meATP-stimulation measured at every sec for 5 mins by whole cell patch-clamp assay
T1 sequence (P49654 whole entry): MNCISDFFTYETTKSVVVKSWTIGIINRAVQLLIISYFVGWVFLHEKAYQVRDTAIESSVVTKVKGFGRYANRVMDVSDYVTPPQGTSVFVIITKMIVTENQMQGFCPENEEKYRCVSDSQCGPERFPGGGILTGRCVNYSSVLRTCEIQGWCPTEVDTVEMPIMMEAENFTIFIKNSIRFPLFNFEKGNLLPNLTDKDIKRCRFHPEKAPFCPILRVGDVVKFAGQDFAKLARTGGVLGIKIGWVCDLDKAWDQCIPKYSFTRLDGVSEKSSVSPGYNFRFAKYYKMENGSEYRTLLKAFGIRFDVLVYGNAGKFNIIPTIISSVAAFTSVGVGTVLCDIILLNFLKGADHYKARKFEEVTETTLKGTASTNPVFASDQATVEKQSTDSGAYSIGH

P2X purinoceptor 3 [2] = target: T2, P2X purinoceptor 3 (Homo sapiens, UniProt P56373); test: Antagonist activity at human P2X3 receptor expressed in human 1321N1 cells assessed as inhibition of ATP-induced calcium influx preincubated for 30 mins prior to ATP-stimulation by calcium influx assay; format: cell-based
T2 sequence (P56373 whole entry): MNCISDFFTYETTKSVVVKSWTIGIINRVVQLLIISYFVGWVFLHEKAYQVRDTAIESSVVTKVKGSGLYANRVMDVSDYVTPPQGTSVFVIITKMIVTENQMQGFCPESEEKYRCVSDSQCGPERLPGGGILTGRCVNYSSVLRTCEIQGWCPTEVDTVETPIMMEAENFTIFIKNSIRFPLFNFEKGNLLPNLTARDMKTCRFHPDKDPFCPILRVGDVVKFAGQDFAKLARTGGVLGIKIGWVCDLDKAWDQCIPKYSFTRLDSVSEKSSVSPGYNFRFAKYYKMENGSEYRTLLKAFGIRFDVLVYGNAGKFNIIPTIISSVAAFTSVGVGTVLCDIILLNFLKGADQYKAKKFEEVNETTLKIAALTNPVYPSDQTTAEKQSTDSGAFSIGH

[3] = Toxicity in zebrafish assessed as induction of teratogenic developmental toxicity at 10 uM; parameters: species or system Danio rerio; settings: in vivo
Homo sapiens = organism: Homo sapiens; test: Selectivity ratio, ratio of IC50 for human P2X3 receptor expressed in human 1321N1 cells to human P2X7 receptor expressed in HEK293 cells; format: cell-based
P2X purinoceptor 7 [4] = target: T3, P2X purinoceptor 7 (Homo sapiens, UniProt Q99572); test: Antagonist activity at human P2X7 receptor in LPS/IFN-gamma-differentiated human THP-1 cells assessed as suppression of BzATP-stimulated IL-1beta release per-incubated for 30 mins before BzATP addition and measured after 30 mins by ELISA; format: cell-based
T3 sequence (Q99572 whole entry): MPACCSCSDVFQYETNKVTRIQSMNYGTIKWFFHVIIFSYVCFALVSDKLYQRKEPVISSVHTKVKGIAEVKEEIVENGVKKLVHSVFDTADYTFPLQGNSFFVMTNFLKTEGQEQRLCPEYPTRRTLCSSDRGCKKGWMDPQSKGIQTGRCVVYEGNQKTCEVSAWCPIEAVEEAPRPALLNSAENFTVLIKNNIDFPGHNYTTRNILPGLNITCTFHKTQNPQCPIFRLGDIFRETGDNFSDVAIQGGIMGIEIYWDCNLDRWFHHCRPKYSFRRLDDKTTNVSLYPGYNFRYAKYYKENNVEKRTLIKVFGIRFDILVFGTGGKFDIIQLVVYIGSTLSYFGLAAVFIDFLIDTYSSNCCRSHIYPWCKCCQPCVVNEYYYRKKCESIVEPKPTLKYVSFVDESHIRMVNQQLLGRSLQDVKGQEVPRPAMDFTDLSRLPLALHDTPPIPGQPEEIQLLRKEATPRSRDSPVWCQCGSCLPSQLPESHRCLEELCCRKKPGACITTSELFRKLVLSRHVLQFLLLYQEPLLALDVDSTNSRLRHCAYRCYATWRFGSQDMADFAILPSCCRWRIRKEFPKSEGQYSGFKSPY

[5] = target: T4, P2X purinoceptor 2 (Homo sapiens) (UniProt Q9UBL9); test: Antagonist activity at human P2X2 receptor expressed in human 1321N1 cells assessed as inhibition of ATP-induced calcium influx at 1 uM preincubated for 30 mins prior to ATP-stimulation by calcium influx assay; format: cell-based
T4 sequence (whole entry): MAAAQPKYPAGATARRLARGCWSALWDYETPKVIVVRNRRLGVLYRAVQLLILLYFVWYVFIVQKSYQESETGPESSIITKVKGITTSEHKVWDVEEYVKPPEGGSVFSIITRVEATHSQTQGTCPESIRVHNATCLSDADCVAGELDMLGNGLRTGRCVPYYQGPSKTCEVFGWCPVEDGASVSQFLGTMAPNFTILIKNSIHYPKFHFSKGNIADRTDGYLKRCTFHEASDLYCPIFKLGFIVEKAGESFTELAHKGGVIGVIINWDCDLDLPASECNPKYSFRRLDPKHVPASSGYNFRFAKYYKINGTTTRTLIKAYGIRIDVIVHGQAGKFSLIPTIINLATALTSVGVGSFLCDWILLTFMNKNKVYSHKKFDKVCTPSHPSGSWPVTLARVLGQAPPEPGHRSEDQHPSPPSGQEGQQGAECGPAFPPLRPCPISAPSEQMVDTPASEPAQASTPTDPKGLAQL

MDA-MB-231 [6] = test: Antiinvasive activity against human MDA-MB-231 cells measured after 48 hrs by transwell invasion assay; format: functional, cell-based; settings: MDA-MB-231, 48 h
MDA-MB-231 [7] = test: Antimigratory activity against human MDA-MB-231 cells xenografted in zebrafish assessed as inhibition of cell dissemination and invasion at 10 uM measured after 4 days by fluorescence microscopic analysis relative to control; format: functional, cell-based
[8] = target: T5, P2X purinoceptor 4 (Homo sapiens) (UniProt Q99571); test: Antagonist activity at human P2X4 receptor expressed in human 1321N1 cells assessed as inhibition of ATP-induced calcium influx at 1 uM preincubated for 30 mins prior to ATP-stimulation by calcium influx assay; format: cell-based
T5 sequence (whole entry): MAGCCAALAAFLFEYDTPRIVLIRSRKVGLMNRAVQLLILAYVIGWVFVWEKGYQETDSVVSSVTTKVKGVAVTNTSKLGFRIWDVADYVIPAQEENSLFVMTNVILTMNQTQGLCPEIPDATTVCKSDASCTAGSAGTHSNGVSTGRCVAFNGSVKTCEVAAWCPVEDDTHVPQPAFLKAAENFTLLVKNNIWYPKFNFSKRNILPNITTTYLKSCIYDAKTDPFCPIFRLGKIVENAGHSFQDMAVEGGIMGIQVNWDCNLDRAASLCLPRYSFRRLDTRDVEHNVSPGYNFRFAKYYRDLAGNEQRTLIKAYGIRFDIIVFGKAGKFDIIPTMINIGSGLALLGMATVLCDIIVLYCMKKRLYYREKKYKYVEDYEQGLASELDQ

MDA-MB-231 [9] = test: Cytotoxicity against human MDA-MB-231 cells assessed as reduction in cell viability at 2.5 to 10 uM measured after 48 hrs by WST-1 cell viability assay; format: cell-based; settings: mda-mb-231, 48 h
[10] = target: T6, P2X purinoceptor 1 (Homo sapiens) (UniProt P51575); test: Antagonist activity at human P2X1 receptor expressed in human 1321N1 cells assessed as inhibition of ATP-induced calcium influx at 1 uM preincubated for 30 mins prior to ATP-stimulation by calcium influx assay; format: cell-based
T6 sequence (whole entry): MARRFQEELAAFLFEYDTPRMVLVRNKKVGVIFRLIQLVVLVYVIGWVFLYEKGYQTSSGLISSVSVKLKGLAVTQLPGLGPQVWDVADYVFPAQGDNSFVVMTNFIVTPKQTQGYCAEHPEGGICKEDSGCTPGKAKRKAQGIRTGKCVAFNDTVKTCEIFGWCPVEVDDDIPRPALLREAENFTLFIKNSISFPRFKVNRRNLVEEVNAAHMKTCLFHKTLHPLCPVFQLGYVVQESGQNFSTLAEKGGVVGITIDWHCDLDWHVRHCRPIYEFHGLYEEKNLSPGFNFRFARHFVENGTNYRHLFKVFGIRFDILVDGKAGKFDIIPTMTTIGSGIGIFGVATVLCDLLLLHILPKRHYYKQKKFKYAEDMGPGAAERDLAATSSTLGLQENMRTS

P2X purinoceptor 7 [11] = target: T3, P2X purinoceptor 7; test: Antagonist activity at human P2X7 receptor expressed in HEK293 cells assessed as inhibition of BzATP-induced EtBr uptake measured after 2 hrs by fluorescence analysis; format: cell-based
P2X purinoceptor 2 = target: T7, P2X purinoceptor 2 (Homo sapiens, UniProt Q9UBL9); test: Antagonist activity at human P2X2 receptor expressed in human 1321N1 cells assessed as inhibition of ATP-induced calcium influx preincubated for 30 mins prior to ATP-stimulation by calcium influx assay; format: cell-based
T7 sequence (Q9UBL9 whole entry): T4 sequence (whole entry)

[12] = target: T5, P2X purinoceptor 4 (Homo sapiens); test: Antagonist activity at human P2X4 receptor expressed in human 1321N1 cells assessed as inhibition of ATP-induced calcium influx at 10 uM preincubated for 30 mins prior to ATP-stimulation by calcium influx assay; format: cell-based
P2X purinoceptor 7 [13] = target: T3, P2X purinoceptor 7; test: Antagonist activity at human P2X7 receptor
MDA-MB-231 [14] = test: Cytotoxicity against human MDA-MB-231 cells assessed as reduction in cell viability at 10 uM measured after 48 hrs by WST-1 cell viability assay; format: cell-based; settings: mda-mb-231, 48 h

O=C(Nc1cc(C(=O)Nc2ccc(S(=O)(=O)O)cc2)cc(C(=O)Nc2ccc(S(=O)(=O)O)cc2)c1)Nc1cc(C(=O)Nc2ccc(S(=O)(=O)O)cc2)cc(C(=O)Nc2ccc(S(=O)(=O)O)cc2)c1
IC50 (P2X purinoceptor 3 [1]): 527 nM
IC50 (P2X purinoceptor 3 [2]): 1580 nM

CN(C)c1ccc(C(=O)N2CCN(c3cc(=O)[nH]c(=O)n3Cc3ccc(OS(=O)(=O)c4cccc5cnccc45)cc3)CC2)cc1
Activity [3]: Non-Toxic
Ratio IC50 (Homo sapiens): 1000 to 7000
IC50 (P2X purinoceptor 7 [4]): 1.33 nM
inhibition [5]: 2%
IC50 (P2X purinoceptor 3 [2]): 2660 nM
IC50 (MDA-MB-231 [6]): 2590 nM
inhibition (MDA-MB-231 [7]): Active
inhibition [8]: 6%
Activity (MDA-MB-231 [9]): Non-Toxic
inhibition [10]: 23%
IC50 (P2X purinoceptor 7 [11]): 1.53 nM

Nc1c(S(=O)(=O)O)cc(Nc2ccc(S(=O)(=O)O)c(Nc3nc(Cl)nc(Cl)n3)c2)c2c1C(=O)c1ccccc1C2=O
IC50 (P2X purinoceptor 2): 692 nM
inhibition [12]: 3%

COc1ccc(CC(=O)NC(N/C(=N/C#N)Nc2cccc3ncccc23)C(C)(C)C)cc1OC (configuration not stated)
IC50 (P2X purinoceptor 7 [13]): 90 nM

CN(C)c1ccc(C(=O)N2CCC(n3cncc3-c3ccc(OS(=O)(=O)c4cccc5cnccc45)cc3)CC2)cc1
Activity [3]: Non-Toxic
Ratio IC50 (Homo sapiens): 1000 to 7000
IC50 (P2X purinoceptor 7 [4]): 2.19 nM
inhibition [5]: 11%
IC50 (P2X purinoceptor 3 [2]): 800 nM
IC50 (MDA-MB-231 [6]): 2680 nM
inhibition (MDA-MB-231 [7]): Active
inhibition [8]: 15%
inhibition [10]: 26%
IC50 (P2X purinoceptor 7 [11]): 0.11 nM
Activity (MDA-MB-231 [14]): 71%
